# From patent US4011390A, “Semi-synthetic aminocyclitol aminoglycoside antibiotics and methods for the preparation thereof” (Schering-Plough Corporation, priority 1974, dated 1977)
# Where two headings read alike, the source gives them in different places.
# Columns and labels:
# [1] = test system: Bacillus subtilis; experiment: Disc test, Bauer-Kirby technique with 10 Mcg. discs; type: cell-based; details: Bacillus subtilis, ATCC6633, strain ATCC 6633
# From the text: (§1) Disc Test Results (Replicate Tests) With The Mutamicins, Sisomicin and
# (§2) Bauer-Kirby Technique^1 With 10 Mcg. Discs
# (§3) ^1 Bauer, Kirby, Sherris and Turck, American Journal of Clinical
# [2] = test system: Streptococcus pyogenes; experiment: as above; type: cell-based; details: Streptococcus pyogenes
# From the text: as §1, §2, §3
# [3] = test system: Pseudomonas aeruginosa; experiment: as above; type: cell-based; details: Pseudomonas aeruginosa
# From the text: as §1, §2, §3
# [4] = test system: Klebsiella pneumoniae; experiment: as above; type: cell-based; details: Klebsiella pneumoniae
# From the text: as §1, §2, §3
# [5] = test system: Staphylococcus aureus; experiment: as above; type: cell-based; details: Staphylococcus aureus
# From the text: as §1, §2, §3
# [6] = test system: Escherichia coli; experiment: as above; type: cell-based; details: Escherichia coli, read-out: Zone Size
# From the text: as §1, §2, §3
# [7] = test system: Providence 164; experiment: as above; type: cell-based; details: strain 164
# From the text: as §1, §2, §3
# [8] = test system: Candida albicans; experiment: MIC in Mueller-Hinton Broth pH 7.2; type: cell-based; details: Mueller-Hinton Broth pH 7.2, read-out: MIC
# From the text: (§4) In vitro Activity of the Mutamicins and Sisomicin
# (§5) MIC's in Mueller-Hinton Broth pH 7.2
# [9] = test system: Aspergillus niger; experiment: MIC in Mueller-Hinton Broth pH 7.2; type: cell-based; details: Mueller-Hinton Broth pH 7.2, read-out: MIC
# From the text: as §4, §5
# [10] = test system: Bacillus subtilis; experiment: MIC in Mueller-Hinton Broth pH 7.2; type: cell-based; details: ATCC6633, strain ATCC 6633
# From the text: as §4, §5
# [11] = test system: Proteus rettgeri; experiment: MIC in Mueller-Hinton Broth pH 7.2; type: cell-based; details: Providencia rettgeri; Mueller-Hinton Broth pH 7.2; read-out: MIC
# From the text: as §4, §5
# [12] = test system: Streptococcus pyogenes; experiment: MIC in Mueller-Hinton Broth pH 7.2; type: cell-based
# From the text: as §4, §5
# [13] = test system: Pseudomonas aeruginosa; experiment: MIC in Mueller-Hinton Broth pH 7.2; type: cell-based
# From the text: as §4, §5
# [14] = test system: Klebsiella pneumoniae; experiment: MIC in Mueller-Hinton Broth pH 7.2; type: cell-based
# From the text: as §4, §5
# [15] = test system: Salmonella typhimurium; experiment: MIC in Mueller-Hinton Broth pH 7.2; type: cell-based; details: Salmonella enterica, strain B
# From the text: as §4, §5
# [16] = test system: Staphylococcus aureus; experiment: MIC in Mueller-Hinton Broth pH 7.2; type: cell-based
# From the text: as §4, §5
# [17] = test system: Escherichia coli; experiment: MIC in Mueller-Hinton Broth pH 7.2; type: cell-based
# From the text: as §4, §5
# [18] = test system: Providence; experiment: MIC in Mueller-Hinton Broth pH 7.2; type: cell-based; details: strain (Genta. R.) 164
# From the text: as §4, §5
# [19] = test system: Trichophyton rubrum; experiment: MIC in Mueller-Hinton Broth pH 7.2; type: cell-based; details: Mueller-Hinton Broth pH 7.2, read-out: MIC
# From the text: as §4, §5
# [20] = test system: Serratia; experiment: MIC in Mueller-Hinton Broth pH 7.2; type: cell-based; details: strain 127, Mueller-Hinton Broth pH 7.2, read-out: MIC
# From the text: as §4, §5
# [21] = Acute Toxicity; details: mouse, in vivo
# [22] = test system: Staphylococcus; experiment: Protection Tests in Mice; type: in vivo; details: Staphylococcus Gray, read-out: PD50
# From the text: (§6) In vivo Activity of the Mutamicin 1 and Sisomicin
# (§7) Protection Tests in Mice
# [23] = test system: Pseudomonas aeruginosa; experiment: Protection Tests in Mice; type: in vivo
# From the text: as §6, §7
# [24] = test system: Escherichia coli; experiment: Protection Tests in Mice; type: in vivo
# From the text: as §6, §7
structure (smiles),measurement,setting,value
CN[C@@H]1[C@@H](O)[C@@H](O[C@H]2[C@H](N)[C@@H](O)[C@H](N)[C@@H](O[C@H]3OC(CN)=CC[C@H]3N)[C@@H]2O)OC[C@]1(C)O [Mutamicin 1],zone of inhibition at 10 µg/disc,[1],31 mm
same,zone of inhibition at 10 µg/disc,[2]; strain B-Cruz,17 mm
same,zone of inhibition at 10 µg/disc,[2]; strain C,13 mm
same,zone of inhibition at 10 µg/disc,[3]; strain Capetown 18,19 mm
same,zone of inhibition at 10 µg/disc,[3]; strain D-2,21 mm
same,zone of inhibition at 10 µg/disc,[3]; strain St. Michael 413,27 mm
same,zone of inhibition at 10 µg/disc,[3]; strain St. Michael 762,24 mm
same,zone of inhibition at 10 µg/disc,[3]; strain St. Michael 1262,18 mm
same,zone of inhibition at 10 µg/disc,[3]; strain St. Michael 1395,29 mm
same,zone of inhibition at 10 µg/disc,[3]; strain Stone 20,31 mm
same,zone of inhibition at 10 µg/disc,[3]; strain Stone 39,29 mm
same,zone of inhibition at 10 µg/disc,[3]; strain Stone 130,14 mm
same,zone of inhibition at 10 µg/disc,[3]; strain Stone 138,15 mm
same,zone of inhibition at 10 µg/disc,[4]; strain Ad 17,24 mm
same,zone of inhibition at 10 µg/disc,[4]; strain Ad 18,26 mm
same,zone of inhibition at 10 µg/disc,[4]; strain Georgetown 3020,26 mm
same,zone of inhibition at 10 µg/disc,[4]; strain Georgetown 3694,26 mm
same,zone of inhibition at 10 µg/disc,"[5]; ATCC6538P, strain ATCC 6538P",26 mm
same,zone of inhibition at 10 µg/disc,[5]; strain 59N,26 mm
same,zone of inhibition at 10 µg/disc,[5]; strain Wood,28 mm
same,zone of inhibition at 10 µg/disc,[5]; strain Ziegler,25 mm
same,zone of inhibition at 10 µg/disc,"[6]; ATCC10536, strain ATCC 10536, 10 Mcg. discs",31 mm
same,zone of inhibition at 10 µg/disc,[6],11 mm
same,zone of inhibition at 10 µg/disc,"[6]; strain 589, 10 Mcg. discs",29 mm
same,zone of inhibition at 10 µg/disc,"[6]; strain JR90, 10 Mcg. discs",0 mm
same,zone of inhibition at 10 µg/disc,"[6]; strain LA290/R55, 10 Mcg. discs",29 mm
same,zone of inhibition at 10 µg/disc,"[6]; strain Swidinsky 4195, 10 Mcg. discs",28 mm
same,zone of inhibition at 10 µg/disc,"[6]; strain W677/R55, 10 Mcg. discs",30 mm
same,zone of inhibition at 10 µg/disc,[7],15 mm
same,MIC,[8],> 25 µg/mL
same,MIC,[9],> 10 µg/mL
same,MIC,[10],0.03 µg/mL
same,MIC,[11],3 µg/mL
same,MIC,"[12]; pH 7.2, strain 27",7.5 µg/mL
same,MIC,"[12]; pH 7.2, strain Alvarez",7.5 µg/mL
same,MIC,"[12]; pH 7.2, strain C",3 µg/mL
same,MIC,"[12]; pH 7.2, strain Cruz",3 µg/mL
same,MIC,"[12]; pH 7.2, strain Karipeds",3 µg/mL
same,MIC,"[12]; pH 7.2, strain Labay",7.5 µg/mL
same,MIC,[13]; pH 7.2,> 25 µg/mL
same,MIC,"[13]; pH 7.2, strain 762, Mueller-Hinton Broth pH 7.2, read-out: MIC",3 µg/mL
same,MIC,"[13]; pH 7.2, strain 1262, Mueller-Hinton Broth pH 7.2, read-out: MIC",3 µg/mL
same,MIC,"[13]; pH 7.2, strain 1395, Mueller-Hinton Broth pH 7.2, read-out: MIC",3 µg/mL
same,MIC,"[13]; pH 7.2, strain D-2, Mueller-Hinton Broth pH 7.2, read-out: MIC",0.8 µg/mL
same,MIC,"[13]; pH 7.2, strain Genta. acetyl Capetown 18, Mueller-Hinton Broth pH 7.2, read-out: MIC",7.5 µg/mL
same,MIC,"[13]; pH 7.2, strain Genta. acetyl Stone 130, Mueller-Hinton Broth pH 7.2, read-out: MIC",17.5 µg/mL
same,MIC,"[13]; pH 7.2, strain NRRL B3223, Mueller-Hinton Broth pH 7.2, read-out: MIC",0.3 µg/mL
same,MIC,"[13]; pH 7.2, strain Stone 20, Mueller-Hinton Broth pH 7.2, read-out: MIC",3 µg/mL
same,MIC,"[13]; pH 7.2, strain Stone 39, Mueller-Hinton Broth pH 7.2, read-out: MIC",3 µg/mL
same,MIC,"[13]; pH 7.2, strain Stone 138, Mueller-Hinton Broth pH 7.2, read-out: MIC",17.5 µg/mL
same,MIC,"[14]; pH 7.2, strain Ad 18",0.3 µg/mL
same,MIC,"[14]; pH 7.2, strain Genta. adenyl 121",3 µg/mL
same,MIC,"[14]; pH 7.2, strain Genta. adenyl 3020",0.3 µg/mL
same,MIC,"[14]; pH 7.2, strain Genta. adenyl 3694",0.3 µg/mL
same,MIC,"[14]; pH 7.2, strain Kana. phos. Ad 22",0.3 µg/mL
same,MIC,[15],3 µg/mL
same,MIC,"[16]; ATCC6538P, pH 7.2, strain ATCC 6538P",0.3 µg/mL
same,MIC,"[16]; pH 7.2, strain 59N",0.3 µg/mL
same,MIC,"[16]; pH 7.2, strain 1118",3 µg/mL
same,MIC,"[16]; pH 7.2, strain Grey",3 µg/mL
same,MIC,"[16]; pH 7.2, strain Wood",0.08 µg/mL
same,MIC,"[16]; pH 7.2, strain Ziegler",0.08 µg/mL
same,MIC,"[17]; ATCC10536, pH 7.2, strain ATCC 10536",0.3 µg/mL
same,MIC,"[17]; pH 7.2, strain Baker 2",3 µg/mL
same,MIC,"[17]; pH 7.2, strain Fl4-Bk",3 µg/mL
same,MIC,"[17]; pH 7.2, strain Genta. adenyl LA290-R55",3 µg/mL
same,MIC,"[17]; pH 7.2, strain Genta. adenyl W677/R55",0.8 µg/mL
same,MIC,"[17]; pH 7.2, strain Kana. phosphor. 589",3 µg/mL
same,MIC,"[17]; pH 7.2, strain Kana. phosphor. C-13",3 µg/mL
same,MIC,"[17]; pH 7.2, strain Tobra. R 4195",3 µg/mL
same,MIC,[18],> 25 µg/mL
same,MIC,[19],> 10 µg/mL
same,MIC,[20],0.8 µg/mL
same,LD50,[21]; ip,> 700 mg/kg
same,LD50,[21]; iv,110 mg/kg
same,ED50,[22],6 mg/kg
same,ED50,"[23]; Pseudomonas aeruginosa 2552, read-out: PD50",15.3 mg/kg
same,ED50,"[23]; Pseudomonas aeruginosa 2557, read-out: PD50",17.1 mg/kg
same,ED50,"[23]; sc, Pseudomonas aeruginosa Sc., read-out: PD50",2.5 mg/kg
same,ED50,"[24]; Escherichia coli 6922, read-out: PD50",2.5 mg/kg
same,ED50,"[24]; Escherichia coli Sc., read-out: PD50",5 mg/kg
